Structures can show the parent of a compound that is named as a salt.
These compounds were tested on Acinetobacter baumannii ATCC17961 (assay: Antimicrobial susceptibility testing: 90% growth inhibitory concentration (IC90) determination in Iso-Sensitest broth, OD600 growth). Conditions: Acinetobacter baumannii, ATCC17961, 16 h, read-out: A. baumannii ATCC 17961 IC90 (uM), strain ATCC 17961, OD600 growth over 16 h.
Format: cell-based
Method in brief: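 OD600 read every 20 min for 16 h at 35±2° C; inhibition taken in log phase to derive IC90. Twofold, 10-point dilutions (e.g. 50–0.097 μM final), inoculum ~5×10^(5) CFU/ml.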
In the case of NCCNC(=O)CN1CCN(C(=O)c2ccc(Nc3nccn4c(-c5cn(CC(F)F)nc5C(F)(F)F)cnc34)cc2Cl)CC1 [Example 598, N-(2-aminoethyl)-2-(4-(2-chloro-4-((3-(1-(2,2-difluoroethyl)-3-(trifluoromethyl)-1H-pyrazol-4-yl)imidazo[1,2-a]pyrazin-8-yl)amino)benzoyl)piperazin-1-yl)acetamide formate], the IC90 is reported as 0.359 µM.
With CCc1cc(Nc2nccn3c(-c4cn(CCC(C)(C)O)nc4C(F)(F)F)cnc23)ccc1C(=O)NCCOCCN [Example 311, N-[2-(2-aminoethoxy)ethyl]-2-ethyl-4-[[3-[1-(3-hydroxy-3-methylbutyl)-3-(trifluoromethyl)pyrazol-4-yl]imidazo[1,2-a]pyrazin-8-yl]amino]benzamide formate] the IC90 was 0.769 µM.
C[C@@H](NC(=O)c1ccc(Nc2nccn3c(-c4c[nH]nc4C(F)(F)F)cnc23)cc1Cl)C(=O)NCCN [Example 95, N-[(2R)-1-(2-aminoethylamino)-1-oxopropan-2-yl]-2-chloro-4-[[3-[3-(trifluoromethyl)-1H-pyrazol-4-yl]imidazo[1,2-a]pyrazin-8-yl]amino]benzamide formate] gave an IC90 of 1.53 µM.
For NCCC(=O)N1CCN(C(=O)c2ccc(Nc3nccn4c(-c5c[nH]nc5C(F)(F)F)cnc34)cc2Cl)CC1 [Example 400, 3-amino-1-[4-[2-chloro-4-[[3-[3-(trifluoromethyl)-1H-pyrazol-4-yl]imidazo[1,2-a]pyrazin-8-yl]amino]benzoyl]piperazin-1-yl]propan-1-one formate], the IC90 was 0.217 µM.
In the case of CCc1cc(Nc2nccn3c(-c4cn(C)nc4C(F)(F)F)cnc23)ccc1C(=O)NCCNC(=O)[C@@H]1C[C@@H](O)CN1 [Example 445, (2S,4R)-N-[2-[[2-ethyl-4-[[3-[1-methyl-3-(trifluoromethyl)pyrazol-4-yl]imidazo[1,2-a]pyrazin-8-yl]amino]benzoyl]amino]ethyl]-4-hydroxypyrrolidine-2-carboxamide formate], the IC90 is reported as 1.48 µM.
For CNC(=O)c1ccc(Nc2nccn3c(-c4cn(Cc5cccc(CCN)c5)nc4C(F)(F)F)cnc23)cc1Cl [Example 595, 4-((3-(1-(3-(2-aminoethyl)benzyl)-3-(trifluoromethyl)-1H-pyrazol-4-yl)imidazo[1,2-a]pyrazin-8-yl)amino)-2-chloro-N-methylbenzamide formate], the IC90 was 0.186 µM.
For Cc1cc(Nc2nccn3c(-c4cn(CC#N)nc4C(F)(F)F)cnc23)ccc1C(=O)N[C@H](C)C(=O)N1CC[C@@H](N)C1 [Example 761, N-[(1R)-2-[(3R)-3-aminopyrrolidin-1-yl]-1-methyl-2-oxo-ethyl]-4-[[3-[1-(cyanomethyl)-3-(trifluoromethyl)pyrazol-4-yl]imidazo[1,2-a]pyrazin-8-yl]amino]-2-methyl-b enzamide formate], the IC90 was 0.721 µM.
Work on CCc1cc(Nc2nccn3c(-c4cn(CC(N)=O)nc4C(F)(F)F)cnc23)ccc1C(=O)NCCOCCN [Example 316, N-[2-(2-aminoethoxy)ethyl]-4-[[3-[1-(2-amino-2-oxoethyl)-3-(trifluoromethyl)pyrazol-4-yl]imidazo[1,2-a]pyrazin-8-yl]amino]-2-ethylbenzamide formate] yielded an IC90 of 1.52 µM.

Same assay, conditions: Acinetobacter baumannii, ATCC17961, 16 h, strain ATCC 17961, OD600 growth over 16 h, read-out: A. baumannii ATCC 17961 IC90
Work on Cc1cc(Nc2nccn3c(-c4cn(CC(F)F)nc4C(F)(F)F)cnc23)cc(F)c1C(=O)N1CCN(C(=O)[C@@H]2C[C@@H](O)CN2)CC1 [Example 698, (4-(4-((3-(1-(2,2-difluoroethyl)-3-(trifluoromethyl)-1H-pyrazol-4-yl)imidazo[1,2-a]pyrazin-8-yl)amino)-2-fluoro-6-methylbenzoyl)piperazin-1-yl)((2S,4R)-4-hydroxypyrrolidin-2-yl)methanone] yielded an IC90 of 0.374 µM.
C#CCn1cc(-c2cnc3c(Nc4ccc(C(=O)NCC)c(CC)c4)nccn23)c(C(F)(F)F)n1 [Example 112, N,2-diethyl-4-[[3-[1-prop-2-ynyl-3-(trifluoromethyl)pyrazol-4-yl]imidazo[1,2-a]pyrazin-8-yl]amino]benzamide] showed an IC90 of 0.231 µM.
CCc1cc(Nc2nccn3c(-c4cn(CC(N)=O)nc4C(F)(F)F)cnc23)ccc1C(=O)NCCCNC(=O)[C@@H]1CCCN1 [Example 789, (S)-N-(3-(4-((3-(1-(2-amino-2-oxoethyl)-3-(trifluoromethyl)-1H-pyrazol-4-yl)imidazo [1,2-a]pyrazin-8-yl)amino)-2-ethylbenzamido)propyl)pyrrolidine-2-carboxamide] gave an IC90 of 1.61 µM.
CCc1cc(Nc2nccn3c(-c4c[nH]nc4C(F)(F)F)cnc23)ccc1C(=O)NCCCNC(=O)CNC(=O)C(F)(F)F [Example 708, 2-ethyl-N-(3-(2-(2,2,2-trifluoroacetamido)acetamido)propyl)-4-((3-(3-(trifluoromethyl)-1H-pyrazol-4-yl)imidazo [1,2-a]pyrazin-8-yl)amino)benzamide] was tested, and the IC90 was 0.397 µM.
Work on CCc1cc(Nc2nccn3c(-c4cn(CC(F)F)nc4C(F)(F)F)cnc23)ccc1C(=O)NCCCNC(=O)N1CC[C@@H](N)C1 [Example 632, (R)-3-amino-N-(3-(4-((3-(1-(2,2-difluoroethyl)-3-(trifluoromethyl)-1H-pyrazol-4-yl)imidazo[1,2-a]pyrazin-8-yl)amino)-2-ethylbenzamido)propyl) pyrrolidine-1-carboxamide formate] yielded an IC90 of 0.209 µM.
Compound NCCNC(=O)CNC(=O)c1ccc(Nc2nccn3c(-c4cn(CCF)nc4C(F)(F)F)cnc23)cc1Cl [Example 8, N-[2-(2-aminoethylamino)-2-oxoethyl]-2-chloro-4-[[3-[1-(2-fluoroethyl)-3-(trifluoromethyl)pyrazol-4-yl]imidazo[1,2-a]pyrazin-8-yl]amino]benzamide formate] has an IC90 of 0.484 µM.
Work on CCc1cc(Nc2nccn3c(-c4cn(CC#N)nc4C(F)(F)F)cnc23)ccc1C(=O)NCCNC(=O)[C@H]1C[C@H](N)C1 [Example 487, N-(2-((1r,3r)-3-aminocyclobutane-1-carboxamido)ethyl)-4-((3-(1-(cyanomethyl)-3-(trifluoromethyl)-1H-pyrazol-4-yl)imidazo[1,2-a]pyrazin-8-yl)amino)-2-ethylbenzamide formate] yielded an IC90 of 0.171 µM.
CCc1cc(Nc2nccn3c(-c4cn(Cc5ccncn5)nc4C(F)(F)F)cnc23)ccc1C(=O)NCCOCCN [Example 2, N-[2-(2-aminoethoxy)ethyl]-2-ethyl-4-[[3-[1-(pyrimidin-4-ylmethyl)-3-(trifluoromethyl)pyrazol-4-yl]imidazo[1,2-a]pyrazin-8-yl]amino]benzamide] gave an IC90 of 0.513 µM.
With O=C(CNC(=O)c1ccc(Nc2nccn3c(-c4c[nH]nc4C(F)(F)F)cnc23)cc1Cl)N[C@H]1CCNC1 [Example 125, 2-chloro-N-[2-oxo-2-[[(3S)-pyrrolidin-3-yl]amino]ethyl]-4-[[3-[3-(trifluoromethyl)-1H-pyrazol-4-yl]imidazo[1,2-a]pyrazin-8-yl]amino]benzamide] the IC90 was 2.23 µM.

Same assay, conditions: strain ATCC 17961, OD600 growth over 16 h, read-out: A. baumannii ATCC 17961 IC90
Cc1cc(Nc2nccn3c(-c4c[nH]nc4C(F)(F)F)cnc23)ccc1C(=O)N1CCN(C(=O)N[C@@H]2CNC[C@H]2O)CC1 [Example 457, formic acid, N-[(3R,4R)-4-hydroxypyrrolidin-3-yl]-4-[2-methyl-4-[[3-[3-(trifluoromethyl)-1H-pyrazol-4-yl]imidazo[1,2-a]pyrazin-8-yl]amino]benzoyl]piperazine-1-carboxamide] showed an IC90 of 0.442 µM.

Reference: patent publication US20230203043A1, “NOVEL IMIDAZOPYRAZINE DERIVATIVES” (Hoffmann-La Roche Inc., priority 2020, published 2023)
